Test results reported in patent US9302991B2, “Arylamide derivatives as TTX-S blockers” (RaQualia Pharma Inc., priority 2010, dated 2016).

molecular target: T1, human Nav1.7 channels (Homo sapiens, UniProt Q15858); assay: FRET assay, human Nav1.7 (EFS on FDSS); assay type: cell-based; settings: CHO cells expressing human Nav1.7, read-out: IC50 against Nav1.7
T1 construct: expressed in transfected cells; host or cells: CHO
Procedure: The inhibitory activities of compounds against voltage gated sodium channels are determined by methodology well known in the art.
The ability of the aryl substituted carboxamide derivatives of the formula (I) to inhibit the NaV1.3, Nav1.7 and Nav1.5 channels is measured by Fluorescence Resonance Energy Transfer (FRET) assay and electrophysiology assay described below.
This screen is used to determine the effects of compounds on human Nav1.3, human Nav1.7, and human Nav1.5 channels, utilising electrical field stimulation (EFS) system in 96-well plate format on FDSS (Hamamatsu Photonics) platform. The change of membrane potential is monitored with FRET dye pair, oxonol (DiSBAC2(3)) and coumarin (CC2-DMPE).
CHO cells expressing human Nav1.7 channels are grown in T225 flasks, in a 5% CO2 humidified incubator to about 80% confluence. Media composition consists of HAM/F12 with Glutamax 1.10% FCS, 100 units/mL Penicillin and 100 microgram/mL Hygromycin.
Protocol: • Seed each cell lines (1×10^5 cells/well) into poly-D-lysine coated 96-well plates prior to experimentation. • Incubate at 37° C. in 5% CO2 for 24 hours. • Wash each well with assay buffer (140 mM NaCl, 4.5 mM KCl, 10 mM D-Glucose, 2 mM CaCl2, 1 mM MgCl2, 10 mM HEPES, pH 7.4 adjusted with NaOH) twice. • Add 1st loading solution containing 10 microM CC2-DMPE and 0.06% Pluronic F-127 in assay buffer. • Incubate the plate at room temperature in dark for 1 hour. • Remove 1st loading solution and added 2nd loading solution containing 15 microM DiSBAC2(3), 0.555 mM VABSC-1 and 0.004% Pluronic F-127 in assay buffer. • Place the plate under the dark at room temperature for 25 minutes. • Add compound solutions into the assay plate. • Set the assay plate in FDSS and placed an EFS device on the plate. • Measure EFS-induced fluorescent response by FDSS.
The data are analyzed and reported as normalized ratios of intensities measured at […]. The process of calculating these ratios is performed as follows:
This analysis is performed using a computerized specific program designed for FDSS generated data. Fluorescence ratio values are plotted using XLfit to determine an IC50 value for each compound.

T1 sequence (Q15858 whole entry): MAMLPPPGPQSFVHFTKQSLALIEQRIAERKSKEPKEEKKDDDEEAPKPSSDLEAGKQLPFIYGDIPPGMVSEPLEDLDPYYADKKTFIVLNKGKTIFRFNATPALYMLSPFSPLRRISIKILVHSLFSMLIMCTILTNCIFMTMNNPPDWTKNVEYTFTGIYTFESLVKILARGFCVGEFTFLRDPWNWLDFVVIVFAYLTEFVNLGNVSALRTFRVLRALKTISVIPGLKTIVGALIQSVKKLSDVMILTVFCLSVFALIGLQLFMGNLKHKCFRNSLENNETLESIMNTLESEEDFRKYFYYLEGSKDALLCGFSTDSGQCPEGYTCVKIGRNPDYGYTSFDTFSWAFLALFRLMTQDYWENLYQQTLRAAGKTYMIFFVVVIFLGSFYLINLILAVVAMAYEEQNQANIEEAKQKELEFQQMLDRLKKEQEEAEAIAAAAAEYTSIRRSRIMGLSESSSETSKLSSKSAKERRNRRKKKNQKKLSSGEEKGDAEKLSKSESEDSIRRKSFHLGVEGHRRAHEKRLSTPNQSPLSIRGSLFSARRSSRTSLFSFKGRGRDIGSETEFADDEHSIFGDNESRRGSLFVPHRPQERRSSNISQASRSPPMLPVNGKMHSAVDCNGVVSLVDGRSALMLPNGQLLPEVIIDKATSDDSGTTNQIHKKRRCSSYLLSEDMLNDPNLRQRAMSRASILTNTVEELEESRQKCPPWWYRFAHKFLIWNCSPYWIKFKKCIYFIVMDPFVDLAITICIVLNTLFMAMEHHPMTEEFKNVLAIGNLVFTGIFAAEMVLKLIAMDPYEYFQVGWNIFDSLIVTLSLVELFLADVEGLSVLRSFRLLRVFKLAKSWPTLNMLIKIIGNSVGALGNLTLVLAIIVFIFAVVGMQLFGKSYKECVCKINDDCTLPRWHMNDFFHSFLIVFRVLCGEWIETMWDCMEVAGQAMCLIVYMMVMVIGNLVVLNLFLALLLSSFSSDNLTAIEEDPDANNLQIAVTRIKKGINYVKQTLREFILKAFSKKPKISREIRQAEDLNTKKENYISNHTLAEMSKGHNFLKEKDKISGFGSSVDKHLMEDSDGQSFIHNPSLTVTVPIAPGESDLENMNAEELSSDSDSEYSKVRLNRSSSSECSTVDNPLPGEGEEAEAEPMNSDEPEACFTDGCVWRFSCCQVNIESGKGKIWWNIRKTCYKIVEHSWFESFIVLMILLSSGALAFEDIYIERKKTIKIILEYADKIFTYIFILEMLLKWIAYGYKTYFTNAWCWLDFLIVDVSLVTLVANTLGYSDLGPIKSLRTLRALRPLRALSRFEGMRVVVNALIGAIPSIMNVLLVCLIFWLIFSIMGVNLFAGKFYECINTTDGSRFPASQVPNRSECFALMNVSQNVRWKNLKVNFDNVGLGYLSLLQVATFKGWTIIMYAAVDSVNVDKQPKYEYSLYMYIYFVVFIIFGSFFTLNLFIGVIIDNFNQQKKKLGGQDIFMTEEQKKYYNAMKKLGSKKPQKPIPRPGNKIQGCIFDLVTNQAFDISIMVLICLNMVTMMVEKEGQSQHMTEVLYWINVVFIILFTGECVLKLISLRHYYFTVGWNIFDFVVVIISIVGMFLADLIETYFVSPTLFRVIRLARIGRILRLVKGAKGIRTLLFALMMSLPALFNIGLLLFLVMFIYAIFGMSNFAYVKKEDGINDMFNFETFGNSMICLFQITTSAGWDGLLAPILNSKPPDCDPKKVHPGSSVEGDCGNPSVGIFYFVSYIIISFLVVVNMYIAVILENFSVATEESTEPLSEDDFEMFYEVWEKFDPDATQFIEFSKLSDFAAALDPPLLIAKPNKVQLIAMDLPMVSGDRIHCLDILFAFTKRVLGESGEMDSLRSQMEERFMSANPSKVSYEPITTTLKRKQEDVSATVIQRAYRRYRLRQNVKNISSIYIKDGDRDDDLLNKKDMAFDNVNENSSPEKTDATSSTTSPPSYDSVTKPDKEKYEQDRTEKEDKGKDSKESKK

SMILES	IC50 [µM]
CCCC(=O)Nc1cc(C(=O)NC(C)c2cnc(OCC(F)F)c(C)c2)ccn1 (single isomer, unassigned) [Example 633, 2-butyramido-N-(1-(6-(2,2-difluoroethoxy)-5-methylpyridin-3-yl)ethyl)isonicotinamide]	< 1
CCC(=O)Nc1cc(C(=O)NC(C)c2ccc(OCC(F)(F)C(F)F)nc2)ccn1 (single isomer, unassigned) [Example 653, 2-propionamido-N-(1-(6-(2,2,3,3-tetrafluoropropoxy)pyridin-3-yl)ethyl)isonicotinamide]	< 1
CC(C)C(=O)Nc1cc(C(=O)NC(C)c2ccc(OCC(F)(F)C(F)F)nc2)ccn1 (single isomer, unassigned) [Example 654, 2-isobutyramido-N-(1-(6-(2,2,3,3-tetrafluoropropoxy)pyridin-3-yl)ethyl)isonicotinamide]	< 1
Cc1cc(C(=O)NC(C)c2ccc(OCC(F)(F)C(F)F)nc2)cc(NC(=O)C(C)C)n1 (single isomer, unassigned) [Example 657, 2-isobutyramido-6-methyl-N-(1-(6-(2,2,3,3-tetrafluoropropoxy)pyridin-3-yl)ethyl)isonicotinamide]	< 1
CCC(=O)Nc1cc(C(=O)NC(C)c2ccc(OCC(F)(F)F)c(Cl)c2)ccn1 (single isomer, unassigned) [Example 673, N-(1-(3-chloro-4-(2,2,2-trifluoroethoxy)phenyl)ethyl)-2-propionamidoisonicotinamide]	< 1
CC(NC(=O)c1ccnc(NC(=O)C2CC2)c1)c1ccc(OCC(F)(F)F)c(Cl)c1 (single isomer, unassigned) [Example 675, N-(1-(3-chloro-4-(2,2,2-trifluoroethoxy)phenyl)ethyl)-2-(cyclopropanecarboxamido)isonicotinamide]	< 1
CC(=O)Nc1cc(C(=O)NC(C)c2ccc(OCC(F)(F)F)c(Cl)c2)cc(C)n1 (single isomer, unassigned) [Example 676, 2-acetamido-N-(1-(3-chloro-4-(2,2,2-trifluoroethoxy)phenyl)ethyl)-6-methylisonicotinamide]	< 1
Cc1cc(C(=O)NC(C)c2ccc(OCC(F)(F)F)c(Cl)c2)cc(NC(=O)C(C)C)n1 (single isomer, unassigned) [Example 678, N-(1-(3-chloro-4-(2,2,2-trifluoroethoxy)phenyl)ethyl)-2-isobutyramido-6-methylisonicotinamide]	< 1
Cc1cc(C(=O)NC(C)c2ccc(OCC(F)(F)F)c(Cl)c2)nc(NC(=O)C2CC2)n1 (single isomer, unassigned) [Example 679, N-(1-(3-chloro-4-(2,2,2-trifluoroethoxy)phenyl)ethyl)-2-(cyclopropanecarboxamido)-6-methylpyrimidine-4-carboxamide]	< 1
CC(NC(=O)c1ccnc(NC(=O)C2CC2)c1)c1ccc(OCC(F)(F)C(F)(F)F)nc1 (single isomer, unassigned) [Example 689, 2-(cyclopropanecarboxamido)-N-(1-(6-(2,2,3,3,3-pentafluoropropoxy)pyridin-3-yl)ethyl)isonicotinamide]	< 1
Cc1cc(C(=O)NC(C)c2ccc(OCC(F)(F)C(F)(F)F)nc2)cc(NC(=O)C(C)C)n1 (single isomer, unassigned) [Example 693, 2-isobutyramido-6-methyl-N-(1-(6-(2,2,3,3,3-pentafluoropropoxy)pyridin-3-yl)ethyl)isonicotinamide]	< 1
CCC(=O)Nc1cc(C(=O)NC(C)c2ccc(OCC(C)(F)F)nc2)ccn1 (single isomer, unassigned) [Example 781, N-(1-(6-(2,2-difluoropropoxy)pyridin-3-yl)ethyl)-2-propionamidoisonicotinamide]	< 1
CC(NC(=O)c1ccnc(NC(=O)C2CC2)c1)c1ccc(OCC(C)(F)F)nc1 (single isomer, unassigned) [Example 782, 2-(cyclopropanecarboxamido)-N-(1-(6-(2,2-difluoropropoxy)pyridin-3-yl)ethyl)isonicotinamide]	< 1
CC(=O)Nc1cc(C(=O)NC(C)c2ccc(OCC(C)(F)F)nc2)cc(C)n1 (single isomer, unassigned) [Example 783, 2-acetamido-N-(1-(6-(2,2-difluoropropoxy)pyridin-3-yl)ethyl)-6-methylisonicotinamide]	< 1
CC(C)C(=O)Nc1cc(C(=O)NC(C)c2ccc(OCC(C)(F)F)nc2)ccn1 (single isomer, unassigned) [Example 785, N-(1-(6-(2,2-difluoropropoxy)pyridin-3-yl)ethyl)-2-isobutyramidoisonicotinamide]	< 1
CCCC(=O)Nc1cc(C(=O)NC(C)c2ccc(OCC(C)(F)F)nc2)ccn1 (single isomer, unassigned) [Example 787, 2-butyramido-N-(1-(6-(2,2-difluoropropoxy)pyridin-3-yl)ethyl)isonicotinamide]	< 1
CC(=O)Nc1cc(C(=O)NC(C)c2ccc(OCC(F)(F)F)cc2Cl)ccn1 (single isomer, unassigned) [Example 796, 2-acetamido-N-(1-(2-chloro-4-(2,2,2-trifluoroethoxy)phenyl)ethyl)isonicotinamide]	< 1
CCC(=O)Nc1cc(C(=O)NC(C)c2ccc(OCC(F)(F)F)cc2Cl)ccn1 (single isomer, unassigned) [Example 797, N-(1-(2-chloro-4-(2,2,2-trifluoroethoxy)phenyl)ethyl)-2-propionamidoisonicotinamide]	< 1
CC(NC(=O)c1ccnc(NC(=O)C2CC2)c1)c1ccc(OCC(F)(F)F)cc1Cl (single isomer, unassigned) [Example 798, N-(1-(2-chloro-4-(2,2,2-trifluoroethoxy)phenyl)ethyl)-2-(cyclopropanecarboxamido)isonicotinamide]	< 1
CC(C)C(=O)Nc1cc(C(=O)NC(C)c2ccc(OCC(F)(F)F)cc2Cl)ccn1 (single isomer, unassigned) [Example 799, N-(1-(2-chloro-4-(2,2,2-trifluoroethoxy)phenyl)ethyl)-2-isobutyramidoisonicotinamide]	< 1
CC(=O)Nc1cc(C(=O)NC(C)c2ccc(OCC(F)(F)F)cc2Cl)cc(C)n1 (single isomer, unassigned) [Example 800, 2-acetamido-N-(1-(2-chloro-4-(2,2,2-trifluoroethoxy)phenyl)ethyl)-6-methylisonicotinamide]	< 1
Cc1cc(C(=O)NC(C)c2ccc(OCC(F)(F)F)cc2Cl)cc(NC(=O)C(C)C)n1 (single isomer, unassigned) [Example 801, N-(1-(2-chloro-4-(2,2,2-trifluoroethoxy)phenyl)ethyl)-2-isobutyramido-6-methylisonicotinamide]	< 1
CC(NC(=O)c1ccnc(NC(=O)C2CC2)n1)c1ccc(OCC(F)(F)F)cc1Cl (single isomer, unassigned) [Example 802, N-(1-(2-chloro-4-(2,2,2-trifluoroethoxy)phenyl)ethyl)-2-(cyclopropanecarboxamido)pyrimidine-4-carboxamide]	< 1
Cc1cc(C(=O)NC(C)c2ccc(OCC(F)(F)F)cc2Cl)nc(NC(=O)C2CC2)n1 (single isomer, unassigned) [Example 803, N-(1-(2-chloro-4-(2,2,2-trifluoroethoxy)phenyl)ethyl)-2-(cyclopropanecarboxamido)-6-methylpyrimidine-4-carboxamide]	< 1
Cc1cc(C(=O)NC(C)c2ccc(OCC(F)(F)C(F)F)nc2)cc(NC(=O)C2CC2)n1 (single isomer, unassigned) [Example 828]	< 1
Cc1cc(C(=O)NC(C)c2ccc(OCC(F)(F)C(F)(F)F)nc2)cc(NC(=O)C2CC2)n1 (single isomer, unassigned) [Example 837, 2-(cyclopropanecarboxamido)-6-methyl-N-(1-(6-(2,2,3,3,3-pentafluoropropoxy)pyridin-3-yl)ethyl)isonicotinamide]	< 1
Cc1cc(C(=O)N[C@H](C)c2cccc(C(F)(F)F)c2)cc(NC(=O)C2CC2)n1 (single isomer, unassigned) [Example 838]	< 1
Cc1cc(C(=O)NC(C)c2cccc(OC(F)(F)F)c2)cc(NC(=O)C2CC2)n1 (single isomer, unassigned) [Example 839, 2-(cyclopropanecarboxamido)-6-methyl-N-(1-(3-(trifluoromethoxy)phenyl)ethyl)isonicotinamide]	< 1
Cc1cc(C(C)NC(=O)c2ccnc(NC(=O)C(C)C)c2)ccc1OCC(F)F (single isomer, unassigned) [Example 862, N-(1-(4-(2,2-difluoroethoxy)-3-methylphenyl)ethyl)-2-isobutyramidoisonicotinamide]	< 1
